According to PubChem BioAssay (NCI):
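Test compounds were applied to cells in 96-well plates for 48 hours at 5 doses. GI50 marks 50% less growth. Definition used: TGI = concentration required for complete inhibition of growth.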

Experiments:
Assay in all cases: NCI anticancer screen, dose series, 48 h
BT-549 breast = system: BT-549 breast
CCRF-CEM leukemia = system: CCRF-CEM leukemia
EKVX NSCLC = system: EKVX NSCLC
HS 578T breast = system: HS 578T breast
KM12 colon = system: KM12 colon
MDA-MB-435 = system: MDA-MB-435
MOLT-4 leukemia = system: MOLT-4 leukemia
NCI-H226 lung = system: NCI-H226 lung
OVCAR-5 ovarian = system: OVCAR-5 ovarian
RPMI-8226 leukemia = system: RPMI-8226 leukemia
SK-OV-3 ovarian = system: SK-OV-3 ovarian
SR leukemia = system: SR leukemia
TK-10 renal = system: TK-10 renal
UACC-257 melanoma = system: UACC-257 melanoma
UACC-62 melanoma = system: UACC-62 melanoma
SK-MEL-28 melanoma = system: SK-MEL-28 melanoma

Row | SMILES | TGI (BT-549 breast) [µM] | TGI (CCRF-CEM leukemia) [µM] | TGI (EKVX NSCLC) [µM] | TGI (HS 578T breast) [µM] | TGI (KM12 colon) [µM] | TGI (MDA-MB-435) [µM] | TGI (MOLT-4 leukemia) [µM] | TGI (NCI-H226 lung) [µM] | TGI (OVCAR-5 ovarian) [µM] | TGI (RPMI-8226 leukemia) [µM] | TGI (SK-OV-3 ovarian) [µM] | TGI (SR leukemia) [µM] | TGI (TK-10 renal) [µM] | TGI (UACC-257 melanoma) [µM] | TGI (UACC-62 melanoma) [µM] | TGI (SK-MEL-28 melanoma) [µM] | GI50 (RPMI-8226 leukemia) [µM]
1 | O=C1C2CC=CCC2C(=O)N1n1c(-c2ccccc2)n[nH]c1=O (centres undefined) | > 100 | > 100 | > 100 | > 100 | > 100 | > 100 | > 100 | > 100 | > 100 | > 100 | > 100 | > 100 | > 100 | > 100 | > 100 |  | 
2 | COc1c2c(cc3oc(C)cc(=O)c13)OC(=N)C(C(N)=O)C2CC(=O)c1ccc(N)cc1 (centres undefined) | > 100 | > 100 | > 100 | > 100 | > 100 | > 100 | > 100 | > 100 | > 100 | > 100 |  | > 100 | > 100 | > 100 | > 100 | > 100 | 
3 | COc1nc(N)c(NC2OC(CO)C(O)C2O)c(=O)[nH]1 (centres undefined) | > 100 | > 100 | > 100 | > 100 | > 100 | > 100 | > 100 | > 100 | > 100 | > 100 | > 100 | > 100 | > 100 | > 100 | > 100 | > 100 | 
4 | CC(C)[C@@H]1NC(=O)[C@H]2N=C(O[C@@H]2C)[C@@H]2CCCN2C(=O)[C@H](Cc2ccccc2)NC(=O)[C@@H]2CSC(=N2)[C@@H](Cc2ccccc2)NC(=O)[C@@H]2CSC1=N2 | > 50 | > 50 | > 50 | > 50 | > 50 | > 50 | > 50 | > 50 | > 50 | 32.1 | > 50 |  | > 50 | > 50 | > 50 | > 50 | 
5 | CCCC(=O)NC1=C(NCC)C(=O)c2ccccc2C1=O | > 100 | > 100 |  | > 100 | > 100 | 78.1 | > 100 | > 100 | > 100 | > 100 | > 100 | > 100 | > 100 | > 100 | > 100 | > 100 | 
6 | COc1ccc(NC(=O)/C(=N\NC(=O)C[n+]2ccccc2)c2c(O)c3ccc(O)cc3oc2=O)c([N+](=O)[O-])c1 | > 100 | > 100 | > 100 | > 100 | > 100 | > 100 | > 100 | > 100 | > 100 | > 100 | > 100 |  | > 100 | > 100 | > 100 | > 100 | 
7 | CN(/N=C(\C(=O)O)c1ccccc1)C1=NCCCN1 | > 100 | > 100 | > 100 | > 100 | > 100 | > 100 | > 100 | > 100 | > 100 | > 100 | > 100 | > 100 | > 100 | > 100 | > 100 | > 100 | 
8 | COc1ccc(NS(=O)CCCc2ccccc2)cc1 (centres undefined) | > 100 | > 100 | > 100 | > 100 | > 100 | > 100 | > 100 | > 100 | > 100 | > 100 |  | > 100 | > 100 | > 100 | > 100 | > 100 | 
9 | O=c1oc2ccccc2cc1/C=N/N1C(=S)N(c2ccccc2)C(=Nc2ccccc2)C1=Nc1ccccc1 | > 100 |  | > 100 | > 100 | > 100 | > 100 | > 100 | > 100 | > 100 | > 100 | > 100 | > 100 | > 100 | > 100 | > 100 | > 100 | 
10 | O=c1oc2ccccc2c(Nc2ccc3c(c2)S(=O)(=O)c2ccccc2O3)c1[N+](=O)[O-] | 70.4 | 83.5 | > 100 | > 100 | > 100 | 97.3 |  | 74.9 | > 100 | 59.8 | 68 | 72.6 | 62.6 | 58.8 | 40 | 51.9 | 
11 | O=C(NCCCCCCCCNC(=O)c1cc(-c2ccccc2)nc2ccccc12)c1cc(-c2ccccc2)nc2ccccc12 | > 100 | > 100 | > 100 | > 100 |  | > 100 | > 100 | > 100 | > 100 | > 100 | > 100 | > 100 | > 100 | > 100 | > 100 | > 100 | 
12 | COC(=O)C1C(OC(=O)c2ccccc2)CC2CCC1N2C(N)=O (centres undefined) | > 100 | > 100 | > 100 | > 100 | > 100 | > 100 | > 100 | > 100 | > 100 | > 100 | > 100 | > 100 |  | > 100 | > 100 | > 100 | 
13 | COC(=O)c1ccc2c(O)c(O)ccc2c1 | 27.2 | > 27 | 53.5 | > 69.2 | 30.8 | 3.3 | 13.7 | 46.1 | 36.5 | 61.2 | 38.7 | 7.06 | 36.2 | 28.1 | 29.4 | 31.4 | 
14 | CN(C)c1ccc(N=Nc2ccc3nc[nH]c3c2)cc1 | > 100 | > 100 | > 100 | 74.2 | 63.9 | 47.7 | > 100 | 82.1 | 70.4 | 59.2 |  | 87.5 | 52.8 | 59.5 | 48.7 | 25.6 | 
15 | CC(=O)OCC(OC(C)=O)C(OC(C)=O)C(C=NN(C(C)=O)S(=O)(=O)c1ccc(/C=C2\NC(=O)NC2=O)cc1)OC(C)=O (centres undefined) | > 100 | > 100 | > 100 | > 100 |  | > 100 | > 100 | > 100 | > 100 | > 100 | > 100 | > 100 | > 100 | > 100 | > 100 |  | > 100
16 | Cc1ccc(/C=N/Nc2cnccn2)s1 | > 100 | > 100 | > 100 | > 100 | > 100 | > 100 | > 100 | > 100 | > 100 | > 100 | > 100 |  | > 100 | > 100 | > 100 | > 100 | 
17 | O=C(O[C@H]1[C@@H](O)[C@H](n2cnc3c(Cl)ncnc32)O[C@@H]1COC(c1ccccc1)(c1ccccc1)c1ccccc1)c1ccccc1 | 97.7 | > 100 | 32.3 | 8.78 | 41.7 | > 100 | 17.9 | > 100 | > 100 | 5.39 | > 100 | 18.6 | > 100 | 41.5 | > 100 | > 100 | 
18 | COc1ccc(NC(=O)CC(=O)N2N=C(C)C(N=Nc3ccc(S(=O)(=O)c4ccc(N=NC5C(=O)N(C(=O)CC(=O)Nc6ccc(OC)cc6)N=C5C)cc4)cc3)C2=O)cc1 (centres undefined) | > 100 | > 100 | > 100 | > 100 | > 100 | > 100 | > 100 | > 100 |  | > 100 | > 100 | > 100 | > 100 | > 100 | > 100 | > 100 | 
19 | C1=NCCNCCN=Cc2ccc(cc2)OCc2cccc(n2)COc2ccc1cc2 | > 100 | > 100 | > 100 | > 100 | > 100 | > 100 | > 100 | > 100 | > 100 | > 100 | > 100 | > 100 |  | > 100 | > 100 | > 100 | 
20 | CCC1C(c2cc(OC)c(OC)c(OC)c2)c2cc3c(cc2OC1N1CCCC1)OCO3 (centres undefined) | 49.4 | 11.9 | 59.8 | 14.1 | 22 | 1.07 | 22.8 | 8.78 | 57.4 | 26.2 | 26.6 | > 47.6 | 40.3 | 55.6 | 23.4 | 60.6 | 
21 | CN(C(=O)Cc1cc(Cl)c(Cl)cc1N=C=S)[C@H]1CCCC[C@@H]1N1CCCC1 | 29.5 | 7.32 | 31.7 | 42.4 | 29.7 | 17 | 14.2 |  | 31.7 | 28 | 32.3 | 3.49 | 23.5 | 28 | 30.3 | 7.65 | 
22 | COc1ccccc1NC(=O)/C(Cc1nc2ccc([N+](=O)[O-])cc2[nH]c1=O)=N\NC(=O)C[N+](C)(C)C | > 100 | 94.5 | > 100 | > 100 | > 100 | > 100 | > 100 | > 100 | > 100 |  | > 100 | 6.47 | > 100 | > 100 | > 100 | > 100 | 
23 | Cc1n[nH]c(=O)c2cc(-c3ccccc3)[nH]c12 | > 100 | > 100 | > 100 | > 100 | > 100 | > 100 | > 100 | > 100 | > 100 | > 100 | > 100 | > 100 | > 100 | > 100 | > 100 |  | 
24 | O=C(NCc1cccnc1)NCc1cccnc1 | > 100 |  | > 100 | > 100 | > 100 | > 100 |  | > 100 | > 100 | > 100 | > 100 | > 100 | > 100 | > 100 | > 100 | > 100 | 
25 | Cc1ccc(-c2nc3ccc(Cl)cc3[nH]2)cc1 | > 100 | > 100 | > 100 | > 100 | > 100 | > 100 | > 100 | > 100 |  | > 100 | > 100 | > 100 | > 100 | > 100 | > 100 | > 100 | 
26 | Fc1ccc2nc3n(c2c1)C(c1c(F)cccc1F)SC3 (centres undefined) | > 100 |  |  | > 100 | > 100 | > 100 | > 100 | > 100 | > 100 | > 100 | > 100 | 76.2 | > 100 | > 100 | > 100 | > 100 | 
27 | C/C(=N\Nc1nc2ccccc2s1)c1ncccn1 | 3.42 | > 100 | 4.54 | > 37.2 | 9.46 | > 100 | > 53.9 |  | 22.7 |  |  | 8.7 |  |  | 1.06 | > 100 | 
28 | CC(=O)OC1C(O)COC(O[C@H]2CC[C@]34C[C@]35CC[C@]3(C)C([C@@]6(C)CC[C@@H](C(C)(C)O)O6)[C@@H](O)C[C@@]3(C)C5C[C@H](OC3OCC(O)C(O)C3O)[C@H]4C2(C)C)C1OC1OCC(O)C(O)C1O (some centres undefined) | > 100 |  | > 100 | > 100 | > 100 | > 100 | > 100 | > 100 | > 100 | > 100 | > 100 | > 100 | > 100 | > 100 | > 100 | > 100 | 
29 | CC1C(c2ccccc2)OP(=O)(OC(C#N)c2ccccc2)N1C (centres undefined) | > 100 | > 100 | > 100 | > 100 | > 100 | > 100 | > 100 |  | > 100 | > 100 | > 100 | > 100 | > 100 | > 100 | > 100 | > 100 | 
